Holding throughout (test): relative viability (nuclei count vs DMSO), 5 days (fraction); higher = more cells survive
Compound in test [1]: Nc1nc(Nc2ccc3c(c2)CC[C@@H](N2CCCC2)CC3)nn1-c1cc2c(nn1)-c1ccccc1CCC2 [Bemcentinib] + CS(=O)(=O)CCNCc1ccc(-c2ccc3ncnc(Nc4ccc(OCc5cccc(F)c5)c(Cl)c4)c3c2)o1 [Lapatinib] (partner 2 µM)
The method in brief: (§1)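 A single step with final 0.05% Triton X-100, 1% formaldehyde and 1 ug/ml Hoechst fixed the cells and stained nuclei 5 days after treatment. Lung cancer cell lines in 1536-well plates had been treated by pin tool the day after seeding with one drug alone or a fixed anchor-drug dose plus five library-drug doses (not always all listed) in √10 steps, and nuclei were counted on 4× images. Relative viability is the ratio of nuclei in treated wells to nuclei in vehicle wells, taken as the median of duplicate plates.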

Compound in test [2]: CNC(=O)c1ccccc1Sc1ccc2c(/C=C/c3ccccn3)n[nH]c2c1 [Axitinib] + O=C(c1cc(Cc2n[nH]c(=O)c3ccccc23)ccc1F)N1CCN(C(=O)C2CC2)CC1 [Olaparib] (partner 8 µM)
The method in brief: as §1

Compound in test [3]: CC1=CC=C(C=C1)C(=O)CN2C3=C(CCCC3)SC2=N [Pifithrin_alpha] + C[C@]1(O)C[C@@H](c2nc(-c3ccc4ccc(-c5ccccc5)nc4c3)c3c(N)nccn32)C1 [Linsitinib] (partner 1 µM)
The method in brief: as §1

Compound in test [4]: CC1=CC=C(C=C1)C(=O)CN2C3=C(CCCC3)SC2=N [Pifithrin_alpha] + COc1cccc2cc(-c3nc([C@H]4CC[C@H](C(=O)O)CC4)n4ncnc(N)c34)[nH]c12 [OSI-027] (partner 0.5 µM)
The method in brief: as §1

These results are taken from the supplement of paper PMC10307832.

On to NCI-H650, for which the relative viability in test [1] (first compound 0.04 µM) was found to be 0.885; in test [1] (first compound 0.1265 µM) it was 1.02; in test [1] (first compound 0.4 µM) it was 0.906; in test [1] (first compound 1.265 µM), 0.759; in test [1] (first compound 4 µM) it was 0.775; in test [2] (first compound 0.005 µM), 0.403. The relative viability in test [2] (first compound 0.01581 µM) was 0.389; in test [2] (first compound 0.05 µM), 0.394; in test [2] (first compound 0.1581 µM), 0.406; in test [2] (first compound 0.5 µM), 0.444; in test [3] (first compound 3.162 µM), 1; in test [3] (first compound 10 µM) it was 0.778. The relative viability in test [3] (first compound 31.62 µM) is 0.524; in test [3] (first compound 100 µM), 0.807; in test [4] (first compound 3.162 µM), 0.51; in test [4] (first compound 10 µM), 0.582; in test [4] (first compound 31.62 µM), 0.489; in test [4] (first compound 100 µM) it was 0.427.
